“And” between values parts separate entries of the source, which are not always exact repeats. Equal values may be shown once.
Assays:
Assay type in all cases: cell-based
[1] = test system: Sox17 expression in human embryonic stem cells (H9 line); test: High content screening assay: Sox17 protein expression (differentiation); details: for fold induction at 10 µM: Homo sapiens, Embryonic stem cell, 10 μM test compound with 100 ng/ml activin A on days 1-2, H9, total intensity by IN Cell Analyzer, strong and moderate hits, read-out: SOX17 Expression, Fold over Wnt 3a/AA control
How it was run: (§1)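 H9 hESCs on MATRIGEL treated days 1-2 with 10 μM compound in DMEM:F12, 0.5% FCS, 100 ng/ml activin A; days 3-4 with 2% FCS plus activin A without compound. Fixed cells immunostained for Sox17 or HNF-3beta with Draq5 nuclear counterstain. Cell number and staining intensity quantified by high-content imaging, 12 fields/well.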

[2] = test system: HNF-3beta expression in human embryonic stem cells (H9 line); test: High content screening assay: HNF-3beta protein expression (differentiation); details: for fold induction at 10 µM: Homo sapiens, Embryonic stem cell, 10 μM test compound with 100 ng/ml activin A on days 1-2, H9, total intensity by IN Cell Analyzer, strong and moderate hits, read-out: HNF3β Expression, Fold over Wnt 3a/AA control
How it was run: as §1

[3] = test system: human embryonic stem cells (H9 or H1 lines); test: Plate reader (MTS) proliferation assay; details: for activity at 10 µM: Homo sapiens, Embryonic stem cell, 96 h; for activity at 10 µM / % Control Value (proliferation): 10 μM test compound with 100 ng/ml activin A on days 1-2, MTS OD490 on day 4, vs Activin A/Wnt3a positive control, strong and moderate hits; for Average (of Raw Data): plate reader raw signal, mean of replicate wells, proliferation of human embryonic stem cells; for Average: average of replicate raw data; for Raw Data: replicate wells, plate reader proliferation screen of GSK-3B inhibitors
Method: Maintenance of human embryonic stem cells (H9 or H1 lines) was conducted as described in Example 1. Colonies of cells were maintained in an undifferentiated, pluripotent state with passage on average every four days. Passage was performed by exposing cell cultures to a solution of collagenase (1 mg/ml; Sigma-Aldrich) for 10 to 30 minutes at 37° C. followed by gentle scraping with a pipette tip to recover cell clusters. Clusters were allowed to sediment and washed to remove residual collagenase. Cell clusters were split at a ratio of 1:3 monolayer area for routine culture or a 1:1 ratio for immediate assay. The human embryonis stem cell lines used for these examples were maintained at passage numbers less than 50 and routinely evaluated for normal karyotypic phenotype as well as absence of mycoplasm contamination.
Cell clusters used in assay were evenly resuspended in normal culture medium and plated into MATRIGEL-coated 96-well Packard VIEWPLATES (PerkinElmer) in volumes of 100 μl/well. MEF conditioned medium supplemented with 8 ng/ml bFGF) was used for initial plating and recovery. Daily feeding was conducted by aspirating spent culture medium from each well and replacing with an equal volume of fresh medium. Plates were maintained at 37° C. in a humidified box, 5% CO2 throughout the duration of assay.
Primary screening assays were initiated by aspirating culture medium from each well followed by three washes in PBS to remove residual growth factors and serum. Test volumes of 80-100 μl per well were added back containing DMEM:F12 base medium (Invitrogen) supplemented with 0.5% FCS (HyClone) and 100 ng/ml activin A (R&D Biosystems) and 10 μM test compound. Positive control wells contained the same medium substituting 10-20 ng/ml Wnt3a (R&D Biosystems). Negative control wells contained base medium with 0.5% FCS without activin A or Wnt3a. Screening compounds were tested in triplicate. Wells were aspirated and fed again with identical solutions on day 2 of the assay. On days 3 and 4, all assay wells were aspirated and converted to DMEM:F 12 supplemented with 2% FCS and 100 ng/ml activin A with the exception of negative control wells which were maintained in DMEM:F12 base medium with 2% FCS.
On day 4 of assay, 15-20 μl of MTS (Promega) was added to each well and plates were incubated at 37° C. for 1.5 to 4 hours. Densitometric readings at OD490 were determined using a Molecular Devices spectrophotometer plate reader. Average readings for replicate sets were calculated along with standard deviation and coefficient of variation. Experimental wells were compared to the Activin A/Wnt3a positive control to calculate a percent control value as a measure of proliferation.
Strong hits are defined as greater than or equal to 120% of control values; moderate hits are defined as falling within the interval of 60-120% of control values. A significant number of compounds induce a proliferative response in this assay.

[4] = test system: human embryonic stem cells (H9 line); test: High content screening assay: cell number (proliferative response)
How it was run: as §1

[5] = cell number in the wells analysed for HNF-3b expression
[6] = cell number in the wells analysed for SOX-17 expression

| SMILES | Average (of Raw Data) [3] | SOX-17 Expression Total Intensity [1] | HNF-3b Expression Total Intensity [2] | Proliferative Response Total cells [4, 5] | Proliferative Response Total cells [4, 6] | Average [3] | % Control Value (proliferation) [3] | Raw Data [3] | other results |
| --- | --- | --- | --- | --- | --- | --- | --- | --- | --- |
| O=C1NC(=O)C(c2cn(CCCO)c3ncccc23)=C1c1ccccc1C(F)(F)F [Compound 16, 3-[1-(3-Hydroxypropyl)-1H-pyrrolo[2,3-b]pyridin-3-yl]-4-[2-(trifluoromethyl)phenyl]-1H-pyrrole-2,5-dione] | 0.8575 |  |  |  |  |  |  |  | fold induction at 10 µM [1]: 0.648; fold induction at 10 µM [2]: 1.1; activity at 10 µM [3]: 85.5% |
| O=C1NC(=O)C(c2cn(CCCO)c3ncccc23)=C1c1cccs1 [Compound 17, 3-[1-(3-Hydroxypropyl)-1H-pyrrolo[2,3-b]pyridin-3-yl]-4-thiophen-2-yl-1H-pyrrole-2,5-dione] | 0.4114 | 14786632 | 14201404 | 83 | 158 |  |  |  |  |
| O=C1NC(=O)C(c2cn(CCCO)c3ncccc23)=C1c1cc(Cl)sc1Cl [Compound 18, 3-(2,5-Dichlorothiophen-3-yl)-4-[1-(3-hydroxypropyl)-1H-pyrrolo[2,3-b]pyridin-3-yl]-1H-pyrrole-2,5-dione] | 0.1442 | 0 | 28439 | 4 | 3 |  |  |  |  |
| COCCCn1cc(C2=C(c3ccccc3O)C(=O)NC2=O)c2cccnc21 [Compound 22, 3-(2-Hydroxyphenyl)-4-{1-[3-(methyloxy)propyl]-1H-pyrrolo[2,3-b]pyridin-3-yl}-1H-pyrrole-2,5-dione] | 0.3385 | 2188847 | 13689421 | 69 | 33 |  |  |  |  |
| COc1ccccc1C1=C(c2cn(-c3ccc4ccccc4c3)c3ncccc23)C(=O)NC1=O [Compound 23, 3-[2-(Methyloxy)phenyl]-4-(1-naphthalen-2-yl-1H-pyrrolo[2,3-b]pyridin-3-yl)-1H-pyrrole-2,5-dione] | 0.4714 | 7121122 | 65100086 | 399 | 88 |  |  |  |  |
| O=C1NC(=O)C(c2cn(CCCO)c3ncccc23)=C1c1cnccn1 [Compound 47, 3-[1-(3-Hydroxypropyl)-1H-pyrrolo[2,3-b]pyridin-3-yl]-4-pyrazin-2-yl-1H-pyrrole-2,5-dione] |  | 382680000 | 560475000 | 6908 | 10447 |  |  |  | fold induction at 10 µM [1]: 1.02; fold induction at 10 µM [2]: 1.22; fold induction at 10 µM ([4]; Homo sapiens, Embryonic stem cell, 10 μM test compound with 100 ng/ml activin A on days 1-2, H9, total cell number by IN Cell Analyzer, strong and moderate hits, read-out: Proliferative Response, Fold over Wnt 3a/AA control): 1.37 |
| O=C1NC(=O)C(c2nn(CCCO)c3ccccc23)=C1c1cn(-c2cccnc2)c2ccc(Cl)cc12 [Compound 52, 3-(5-Chloro-1-pyridin-3-yl-1H-indol-3-yl)-4-[1-(3-hydroxypropyl)-1H-indazol-3-yl]-1H-pyrrole-2,5-dione] |  |  |  |  |  | 1.0617 |  |  | activity at 10 µM [3]: 136% |
| CN(C)CCCn1c2c(c3ccccc31)C1=C(C(=O)NC1=O)N(c1cccc(Cl)c1)C2 [Compound 101, 4-(3-Chlorophenyl)-6-[3-(dimethylamino)propyl]-5,6-dihydropyrrolo[3′,4′:5,6]pyrido[3,4-b]indole-1,3(2H,4H)-dione] |  |  |  |  |  | 1.0316 |  |  | activity at 10 µM [3]: 155% |
| CCN1CCOCCOCCn2cc(c3ccccc32)C2=C(C(=O)NC2=O)c2cn(c3ccccc23)CC1 [Compound 103, 14-Ethyl-6,7,9,10,13,14,15,16-octahydro-12H,23H-5,26:17,22-di(metheno)dibenzo[k,q]pyrrolo[3,4-n][1,4,7,10,19]dioxatriacyclohenicosine-23,25(24H)-dione] |  |  |  |  |  | 0.5236 | 68.7% | 0.7125 and 0.3347 |  |
| O=C1NC(=O)C(c2cn(CCOCCOCCO)c3ccccc23)=C1c1cn(CCO)c2ccccc12 [Compound 110, 3-[1-(2-Hydroxyethyl)-1H-indol-3-yl]-4-{1-[2-({2-[(2-hydroxyethyl)oxy]ethyl}oxy)ethyl]-1H-indol-3-yl}-1H-pyrrole-2,5-dione] |  |  |  |  |  | 1.0686 |  |  | activity at 10 µM [3]: 161% |
| CN1CCN(C)CCn2cc(c3ccccc32)C2=C(C(=O)NC2=O)c2cn(c3ccccc23)CC1 [Compound 111, 8,11-Dimethyl-6,7,8,9,10,11,12,13-octahydro-20H-5,23:14,19-di(metheno)dibenzo[k,q]pyrrolo[3,4-n][1,4,7,10]tetraazacyclooctadecine-20,22(21H)-dione] |  |  |  |  |  | 0.8784 | 128.7% | 1.0689 and 0.6879 |  |
| CN1CCOCCOCCN(C)CCn2cc(c3ccccc32)C2=C(C(=O)NC2=O)c2cn(c3ccccc23)CC1 [Compound 112, 12,21-Dimethyl-11,12,13,14,16,17,20,21,22,23-decahydro-1H,10H,19H-9,4:24,29-di(metheno)dibenzo[k,q]pyrrolo[3,4-n][1,4,7,10,19,22]dioxatetraazacyclotetracosine-1,3(2H)-dione] |  |  |  |  |  | 0.9024 | 132.8% | 1.0444 and 0.7603 |  |
| O=C1NC(=O)C2=C1c1cn(c3ccccc13)CCOCCOCCN(Cc1cccs1)CCn1cc2c2ccccc21 [Compound 133, 14-(2-Thienylmethyl)-6,7,9,10,13,14,15,16-octahydro-12H,23H-5,26:17,22-di(metheno)dibenzo[k,q]pyrrolo[3,4-n][1,4,7,10,19]dioxatriazacyclohenicosine-23,25(24H)-dione] |  |  |  |  |  | 1.0839 | 149.3% | 1.0786 and 1.0891 |  |
| O=C1NC(=O)C2=C1c1cn(c3ccccc13)CCOCCOCCN(Cc1cccc3ccccc13)CCn1cc2c2ccccc21 [Compound 136, 14-(Naphthalen-1-ylmethyl)-6,7,9,10,13,14,15,16-octahydro-12H,23H-5,26:17,22-di(metheno)dibenzo[k,q]pyrrolo[3,4-n][1,4,7,10,19]dioxatriazacyclohenicosine-23,25(24H)-dione] |  |  |  |  |  | 0.9509 and 0.9309 | 128.8% and 125.7% | 0.8618 and 1.0400 and 0.8430 and 1.0187 |  |
